# Experiments:
# lung cancer cells = format: in vivo, mice; details: after completion of the experiment
structure (smiles),measurement,setting,value
O=C(O)c1cc(O)c2c(c1)C(=O)c1cccc(O)c1C2=O [rhein],toxic damage to the tumor-bearing mice,"different doses, under the experimental conditions",did not cause toxic damage
same,influence on the body temperature of tumor-bearing mice,"mouse, in vivo",some fluctuations
same,overall inhibition ratio (lung metastasis),lung cancer cells,15.8%
